Paper PMC9964503, “Effects of Apigenin on Pharmacokinetics of Dasatinib and Probable Interaction Mechanism” (Molecules, 2023)

What was measured:
CYP3A2 = assay: Hepatic and intestinal CYP3A2 protein expression (immunoblot); type: in vivo, rats
Method: (§1) The animals were categorized into four groups (n = 6) and fasted for 12 h before the experiment. […] orally administered with normal saline for 7 days and Group II was orally administered DAS (25 mg/kg) on the 7th day. Group III was co-administered DAS with APG for 7 days and DAS (25 mg/kg p.o.) on the 7th day, 2 h after APG 40 mg/kg administration, and Group IV was administered with APG 40 mg/kg for 7 days. The blood was collected from the tail vein at various time points after DAS administration and subjected to centrifugation at 5000× g for 10 min to obtain plasma for DAS quantification using ultra pressure liquid chromatography with mass. At the end of the experiment, all animals were euthanized using carbon dioxide, and liver and intestine tissues were harvested and for Western blotting.
(§2) A PierceTM BCA Protein Assay Kit (Thermo Fisher Scientific) was used to extract the total protein from the hepatic and intestinal tissues by bicinchoninic acid technique. Immunoblots were executed as per the methods of Towbin et al. (1979) with slight modification. Briefly, 10% SDS polyacrylamide gels were used to electrophorese 25 μg of hepatic and intestinal epithelial proteins. These proteins were then transferred to activated PVDF membranes and blocked with 4% skim milk and BSA in TBST. After that, membranes were treated with antibodies for CYP3A2 isozymes, active transporters P-glycoprotein/MDR1, BCRP/ABCG2, and β-actin protein expression for an overnight period (4 °C). The membrane strips were incubated with the suitable secondary antibodies for 2 h after repeated washing steps with 1% TBST and TBS (room temperature). The membrane strips were then washed four times with TBST for five minutes each time. Bands were developed using Luminata™ Western Chemiluminescent HRP Substrates (Millipore), followed by densitometric evaluation of the immunoblots.

Pgp/MDR1 = assay: Hepatic and intestinal Pgp/MDR1 protein expression (immunoblot); type: in vivo, rats
Method: as §1, §2

BCRP/ABCG2 = assay: Hepatic and intestinal BCRP/ABCG2 protein expression (immunoblot); type: in vivo, rats
Method: as §1, §2

[1] = Pharmacokinetics of oral DAS in rats with or without APG pretreatment (UPLC-MS/MS, non-compartmental); type: in vivo; conditions: DAS in rat plasma, DAS 25 mg/kg p.o., alone or after APG 40 mg/kg p.o. for 7 days, mean ± SD
Method: The Central Animal House facility of College of Pharmacy, King Saud University’s, Riyadh, Saudi Arabia, provided 24 healthy adult male Wistar rats (weighing 211–223 g), and the experiment was authorized by the Animal Ethics Committee of the College of Pharmacy, King Saud University (KSU-SE-21-58). All animals were retained in polypropylene cages: 6 animals were caged (n = 6) per cage with a 12-h light/dark cycle, at 25 °C in humane conditions with free access to food and water and adapted to the living conditions one week prior to experiment
as §1
Using UHPLC-MS/MS, DAS concentrations in rat plasma samples were determined. A mixture of DAS and IBR (internal standard) was separated on an Acquity BEH C18 column, and both compounds were eluted at a flow rate of 0.25 mL/min from a mobile phase consisting of acetonitrile, 0.1% formic acid, and 20mM ammonium acetate (95:5). The entire duration of the study was about 2.5 min. The auto-sampler was kept at 10 °C, while the column oven was kept at a constant 40 °C. Electrospray ionization was used to ionize samples in a positive direction. […] Multiple reaction monitoring (MRM) mode detection and quantitation of analyte (DAS) and IS (IBR) employed the precursor to product ion transition of 488.06 and gt; 401.1 and 441.16 and gt; 84.04, respectively. Capillary voltage was 3.4 kV, source temperature was 150 °C, and desolvation temperature was 350 °C for optimum sample ionization using MS/MS. A flow rate of 600 L/h of nitrogen gas was utilized for the desolvation process, whereas a flow rate of 0.18 mL/min of argon gas was used for the collision process. The analyte and IS cone voltages were 46 V and 48 V, and the collision energy was 28 eV and 40 eV, respectively. Precision and accuracy were partially confirmed for the assay using the “US Food and Drug Administration 2018 guideline for bioanalytical technique validation,” and found to be within acceptable ranges of 15% both intra- and inter-day. The samples were acquired using Masslynx 4.1 SCN 805, and then processed using TargetLynks. After making a few modifications to a previously reported study, it was put to use.
A plasma sample of 150 µL was aliquoted into an Eppendorf tube, along with 20 µL of a spiked internal standard (250 ng/mL), and 1 mL of ethyl acetate was also added for the extraction phase. For 10 min at 4 °C and 10,500 rpm, centrifuged samples were shaken for 15 min after being vortexed. Finally, 800 µL of the organic upper layer were transferred to an Eppendorf tube and dried in a sample concentrator at room temperature. Following reconstitution with 150 µL of acetonitrile, the dried residue was transported to UHPLC-MS/MS for 5 µL of analysis.
PK Solver software was employed to calculate the pharmacokinetic parameters using non-compartmental model. The calculated parameters were as follows: half-life (T1/2), elimination rate constant (Kel), time to maximum concentration (Tmax), the maximum concentration (Cmax), area under concentration time curve (AUC), the area under the moment curve (AUMC); the volume of distribution (Vd), the mean residence time (MRT), and clearance (Cl) were examined.

[2] = intestine, APG 40 mg/kg only pretreatment vs normal rats
[3] = liver, APG 40 mg/kg only pretreatment vs normal rats
[4] = intestine, DAS peroral vs normal rats
[5] = liver, DAS peroral vs normal rats

Structure (SMILES): O=c1cc(-c2ccc(O)cc2)oc2cc(O)cc(O)c12 [APG, 4′,5,7-trihydroxyflavone]
- inhibition of intestinal CYP3A2 protein expression (CYP3A2; [2]): 90.97%
- inhibition of hepatic CYP3A2 protein expression (CYP3A2; [3]): 87.24%
- inhibition of intestinal Pgp/MDR1 protein expression (Pgp/MDR1; [2]): 87.84%
- inhibition of hepatic Pgp/MDR1 protein expression (Pgp/MDR1; [3]): 90.67%
- inhibition of intestinal BCRP/ABCG2 protein expression (BCRP/ABCG2; [2]): 91.50%
- inhibition of hepatic BCRP/ABCG2 protein expression (BCRP/ABCG2; [3]): 91.05%

Structure (SMILES): Cc1nc(Nc2ncc(C(=O)Nc3c(C)cccc3Cl)s2)cc(N2CCN(CCO)CC2)n1 [DAS, Dasatinib]
- AUC0-t [1]: 1635.84 ± 45.29 ng·h/mL
- AUMC0-inf_obs [1]: 16200.10 ± 1656.57 ng/mL × h^2
- Cl [1]: 0.012 ± 0.0005 (mg/kg)/(ng/mL)/h
- Cmax [1]: 263.06 ± 12.33 ng/mL
- Vd [1]: 0.087 ± 0.005 (mg/kg)/(ng/mL)
- Tmax ([1]; male, Wistar, po): 1 h
- half-life ([1]; male, Wistar, po): 298 ± 28.8 min
- k el ([1]; male, Wistar, po): 3.89e-05 s⁻¹
- AUC(0-inf) ([1]; male, Wistar, po, read-out: AUC0-inf_obs): 2060 ± 97 ng·h/mL
- MRT inf ([1]; male, Wistar, po, read-out: MRT 0-inf_obs): 7.84 ± 0.46 h
- increase of intestinal CYP3A2 protein expression (CYP3A2; intestine, DAS administered rats vs normal control rats): 79.13%
- induction of intestinal Pgp/MDR1 protein expression (Pgp/MDR1; [4]): 91.65%
- induction of hepatic Pgp/MDR1 protein expression (Pgp/MDR1; [5]): 93.08%
- induction of intestinal BCPR/ABCG2 protein expression (BCRP/ABCG2; [4]): 95.66%
- induction of hepatic BCPR/ABCG2 protein expression (BCRP/ABCG2; [5]): 92.55%
